Test results published in patent publication US5688654A, “GABA a receptor subtypes and methods for screening drug compounds using imidazoquinoxalines and pyrrolopyrimidines to bind to GABAa receptor subtypes” (Neurogen Corporation, priority 1994, dated 1997).

target: GABAa receptor subtype; assay: Drug screening assay: displacement of 3H-Compound 1 from rat cortical tissue (novel GABAa receptor subtype); assay type: binding; conditions: Table I; 0.5 nM 3H-Compound 1, rat cortical tissue, 20 min at 4° C., buffer with 1 uM Ro 15-1788 and 10 uM muscimol; Ki by Cheng Prusoff
Description: The methods for screening drug compounds of the invention using the novel GABAa receptor are illustrated by the following assays for GABAa receptor subtype activity.
Assays were carried out using the tissue preparation described in Thomas and Tallman (J. Bio. Chem. 156: 9838-9842, 1983, J. Neurosci 3: 433-440, 1983). Rat cortical tissue was dissected and homogenized in 25 volumes (w/v) of 0.05M Tris HCl buffer (pH 7.4 at 4° C.). The tissue homogenate was centrifuged in the cold (4°) at 20,000×g for 20'. The supernatant was decanted and the pellet was rehomogenized in the same volume of buffer and again centrifuged at 20,000×g. The supernatant was decanted and the pellet was frozen at -20° C. overnight. The pellet was then thawed and rehomogenized in 25 volume (original wt/vol) of buffer and the procedure was carried out twice. The pellet was finally resuspended in 50 volumes (w/vol of 0.05M Tris HCl buffer containing 1 uM Ro 15-1788. 1 uM sodium ascorbate and 10 uM muscimol (pH 7.4 at 4° C.).
Incubation mixtures contained 400 μl of tissue homogenate. 5μl of 100 nM ligand in above buffer [final ligand concentration was 0.5 nM ^3 H-Compound 1 (specific activity 67 Ci/mmol)], drug or blocker and buffer to a total volume of 1 ml. Incubations were carried for 20 min at 4° C. then were rapidly filtered through GFB filters to separate free and bound ligand. Filters were washed twice with fresh 0.05M Tris HCl buffer (pH 7.4 at 4° C.) and counted in a liquid scintillation counter. 10 μM Compound 3 was added to some tubes to determine nonspecific binding. Data were collected in triplicate determinations, averaged and % inhibition of total specific binding was calculated. Total Specific Binding=Total-Nonspecific. Typically the specific binding represented about 75 to 85% of total binding. In some cases, the amounts of unlabeled drugs was varied and total displacement curves of binding were carried out. Data were convened to a form suitable for the calculation of IC50 and Hill Coefficient (nH). These IC 50's were convened to Ki's using the Cheng Prusoff equation (Cheng and Prussoff, 1973, Biochem. Pharmacol. 22: 3099.).

Point of comparison: `Cc1nnc2n1-c1ccc(Cl)cc1C(c1ccccc1)=NC2` [Alprazelam], Ki 8000 nM. Against it:
- Cc1ccc(-c2nc3ccc(C)cn3c2CC(=O)N(C)C)cc1 [Zolpidem] — 3.6-fold lower, 2200 nM
- CCCOc1ccc(-n2c(=O)c3c[nH]c4ccccc4n-3c2=O)cc1 [Compound 3, 2-(4-Propyloxyphenyl)imidazo[1,5,a]quinoxaline-1,3(2H,5H)-dione] — 8900-fold lower, 0.9 nM
- CCOc1ccc(-n2c(=O)c3c[nH]c4cc(C)ccc4n-3c2=O)cc1 [Compound 4, 2-(4-Ethoxyphenyl)-7-methyl-imidazo[1,5,a]quinoxaline-1,3(2H,5H)-dione] — 16000-fold lower, 0.5 nM
- CCOc1ccc(-n2c(=O)c3cn(C)c4ccccc4n-3c2=O)cc1 [Compound 5, 2-(4-Ethoxyphenyl)-5-methyl-imidazo[1,5,a]quinoxaline-1,3(2H,5H)-dione] — 1300-fold lower, 6 nM
- CCOC(=O)c1ncn2c1CN(C)C(=O)c1cc(F)ccc1-2 [Flumazenil] — within 1.5-fold, 7500 nM
- CCOc1ccc(-n2c(=O)c3c[nH]c4ccccc4n-3c2=O)cc1 [Compound 1, 2-(4-Ethoxyphenyl)imidazo[1,5.a]quinoxaline-1,3(2H,5H)-dione] — 16000-fold lower, 0.5 nM
- CN1C(=O)CN=C(c2ccccc2)c2cc(Cl)ccc21 [Diazepam] — 1.6-fold lower, 5000 nM
- COc1cccc(-c2ncc3[nH]c4c(c3n2)CCCC4)c1 [Compound 7, 2-(3-Methoxyphenyl)-6,7,8,9-tetrahydro-5H-indolo[3.2-d]-pyrimidine] — 160-fold lower, 50 nM
- COc1ccc(F)c(-c2ncc3[nH]c4c(c3n2)CCCC4)c1 [Compound 2, 2-(2-Fluoro-5-methoxyphenyl)-6,7,g,9-tetrahydro-5H-indolo[3,2-d]-pyrimidine] — 2100-fold lower, 3.9 nM
- COc1cccc(-n2c(=O)c3c[nH]c4ccccc4n-3c2=O)c1 [Compound 6, 2-(3-Methoxyphenyl)imidazo[1,5.a]quinoxaline-1,3(2H,5. H)-dione] — 15000-fold lower, 0.55 nM
- CC(C)(C)OC(=O)c1ncn2c1[C@@H]1CCCN1C(=O)c1c(Br)cccc1-2 [Bretazenil] — 1.9-fold higher, 15000 nM

target: known GABAa receptors; assay: not given; conditions: Table II, no method given; cited from earlier work

Point of comparison: `CCOC(=O)c1ncn2c1CN(C)C(=O)c1cc(F)ccc1-2` [Flumazenil], Ki 1 nM. Against it:
- Cc1ccc(-c2nc3ccc(C)cn3c2CC(=O)N(C)C)cc1 [Zolpidem] — 20-fold higher, 20 nM
- CN1C(=O)CN=C(c2ccccc2)c2cc(Cl)ccc21 [Diazepam] — 6-fold higher, 6 nM
- CC(C)(C)OC(=O)c1ncn2c1[C@@H]1CCCN1C(=O)c1c(Br)cccc1-2 [Bretazenil] — the same, 1 nM

system: benzodiazepine binding site; assay: not given; conditions: Tallman et al., 1978; cited from earlier work

In the case of `CN1CCc2cc3c(cc2C1C1OC(=O)c2c1ccc1c2OCO1)OCO3` (single isomer, unassigned; (+)) [(+) bicuculline], the “effect on benzodiazepine binding / on its enhancement by GABA agonists (in words)” value is listed as “blocked”.
In the case of `CN1CCc2cc3c(cc2C1C1OC(=O)c2c1ccc1c2OCO1)OCO3` (single isomer, unassigned; (-)) [(-) bicuculline], the “effect on benzodiazepine binding / on its enhancement by GABA agonists (in words)” value is listed as “much less active”.
For `NCCCC(=O)O` [GABA, γ-Aminobutyric acid], the “effect on benzodiazepine binding / on its enhancement by GABA agonists (in words)” value is given as “enhance the binding of benzodiazepines”.
